Holding throughout (type): in vivo
Series [1] deals with female Sprague-Dawley rats. Description: Cold allodynia (ethyl chloride spray) in spinally-injured rats, acute administration. The source says:
(§1) In 6 groups of female Sprague-Dawley rats weighting 200 g, photochemically-induced ischemic spinal cord injury was produced according to methods described by Xu et al. Pain, 1992, 48, 279-290. Spinally-injured rats developed a chronic pain syndrome, including marked mechanical and cold allodynia. The rats were injured 3-6 months before the beginning of the experiment.
(§2) Each group of rats was i.p. treated, respectively, with one of the following compounds using one of the above indicated doses: • NO-gabapentin at doses of 20 mg/Kg (55 μmole/Kg), or 60 mg/Kg (167.21 μmole/Kg), or 100 mg/kg (278.7 μmole/Kg), dissolved in saline, single dose, i. p.); • gabapentin at doses of 30 mg/Kg ([…]) or 100 mg/kg ([…]), dissolved in saline, single dose i. p.); • the control group received the vehicle; The response to cold was tested by spray-applying ethyl chloride on the shaved allodynic skin area at time 0 (i.p. injection) and then at 30′, 120′ and 240′. The response was evaluated according to the following score: • 0=no response; • 1=localized response (skin twitch and contraction), no vocalization; • 2=transient vocalization, moderate struggle; • 3=sustained vocalization and aggression.

The test system of another series is Wistar adult male rats. Description: Acute toxicity in the diabetic animal (streptozocin). As for the experimental part:
In 50 Wistar adult male rats weighing 165-190 g, diabetes was induced by injection i.v. of a single dose of streptozocin (65 mg/kg in 1 ml/kg buffer citrate at pH 4.5).
After one week the animals were distributed in three groups of 10 rats each and treated per os for three days with daily doses of 100 mg/kg of gabapentin and NO-gabapentin. The controls were treated only with streptozocin.
Death rate was monitored for 7 days from the last treatment.

In a further series the test system is Swiss male mice. The experiment in a line: "Paw-licking" test (formalin injected in the paw). The note with it: for Number "paw licking" %: 1 h before formalin, counted 15 min, percentage of control group. As for the experimental part:
Four groups of Swiss male mice (20-25 g, Charles River) each formed by 10 animals, received by intraperitoneal injection Gabapentin (90 mg/kg) or the compound of formula (XVI) (Example 3), called NO-Gabapentin at the doses of 50 mg/kg, in a saline solution. The control group received the same volume of saline solution. One hour after the administration of the compound solutions, formalin (10 μl) was injected in the paw. In the 15 minutes subsequent to formalin administration, for each animal, the number of times wherein it licked its paw was counted. The analysis was carried out “in blind”.

For series [2], the system named is female Sprague-Dawley rats. The experiment in a line: Mechanical allodynia (von Frey hairs, vocalization threshold) in spinally-injured rats, repeated administration. The note with it: for vocalization threshold (g) to mechanical stimulation with von Frey hairs: 1 hour after administration. As to the method: In this experiment the effect of repeated administration of NO-gabapentin was assessed and compared with that of the precursor drug gabapentin in a rat model of neuropathic pain. In 4 groups of female Sprague-Dawley rats weighting 200 g photochemically-induced ischemic spinal cord injury was produced according to methods describe by Xu et al. Pain, 1992, 48, 279-290.
Spinally-injured rats developed a chronic pain syndrome, including marked mechanical and cold allodynia. The rats were injured 3-6 months before the beginning of the experiment. Each of the groups of rats were i.p. treated daily for 10 day, respectively, with 60 mg/kg (167.2 μmole/Kg) of NO-gabapentin and with 30 mg/Kg (175 μmole/Kg) of gabapentin. Controls (two groups) received only the vehicle. Each day the treatment of the animals was made at the same time. During the experiment vocalized thresholds to graded mechanical touch/pressure were tested with von Frey hairs.
During testing, rats were gently restrained in a standing position and the von Frey hair was pushed onto the skin until filament becomes bent. The frequency of stimulation was about 1/s and repeated 5-10 times. The intensity of stimulation (g) which induced consistent vocalization (>75% response rate) is considered as pain threshold. Behavioral testings were carried out before the daily for the control group and 1 hour after administration for the treated groups.

In series [3] the test system is female Sprague-Dawley rats. The experiment in a line: Motor performance (combined testing system) in spinally-injured rats.
Text: as §1, §2
The effect of the compounds on motor activity was also evaluated using a combined testing system as described in Hao, J. X. and Xu, X. J., Pain, 1996, 66, 279-286.

The next series relates to Wistar adult rats. Description: Neuropathic pain model, ligature of the right sciatic nerve (Bennett), withdrawal latencies. The note with it: 14 days after ligature, percentage of control response. As to the method: Wistar adult rats weighing about 200 grams were used, in the experimental model described by Bennett G J, Xie Y K, Pain 1988, 33(1): 87-107. The pain response (withdrawal latencies) is determined 14 days after the ligature of the right sciatic nerve. The results obtained are reported in Table 2 and have been expressed as a percentage ratio of the difference between the response from the intact paw and from the injured paw, to the response of the control animals, that have been injected with the carrier and undergone the nerve ligature. The groups were of 10 rats each.

With `NCC1(CC(=O)O)CCCCC1` [Gabapentin], the “response to cold stimulation, score (0-3)” value (shortened to “response to cold stimulation”) in series [1] (175 μmole/kg i.p. single dose, time 0 min) was determined as 2; in series [1] (175 μmole/kg i.p. single dose, time 30 min), 2; in series [1] (175 μmole/kg i.p. single dose, time 120 min) it was 2; in series [1] (175 μmole/kg i.p. single dose, time 240 min) it was 2. Besides, the “antiallodynic effect (cold), in words” value in series [1] (30 mg/Kg (175 μmole/Kg) i.p.) is given as “did not produce a significant antiallodynic effect”. Also, in the series with Wistar adult male rats (100 mg/kg per os daily for three days, diabetic rats, monitored 7 days from last treatment), the lethality % came out at 50%. Also, the “Number "paw licking" %” value with Swiss male mice (90 mg/kg i.p.) is recorded as 80%. In addition, the “vocalization threshold (g) to mechanical stimulation with von Frey hairs” value in series [2] (175 μmole/kg i.p. daily, Day 1) was 5 g; in series [2] (175 μmole/kg i.p. daily, Day 2) it was 6 g; in series [2] (175 μmole/kg i.p. daily, Day 4), 70 g; in series [2] (175 μmole/kg i.p. daily, Day 6), 90 g. In series [2] (30 mg/Kg (175 μmole/Kg) i.p. daily for 10 day), the “effect on mechanical allodynia, in words” value is reported as “did not produce a significant effect up to the second day”. The “effect on mechanical allodynia compared with NO-gabapentin, in words” value in series [2] (gabapentin 30 mg/Kg vs NO-gabapentin 60 mg/kg i.p. daily) is listed as “the effect was lower than that of NO-gabapentin”. Besides, the “motor performance (score)” value in series [3] (175 μmole/kg i.p., time 0 min) is 20; in series [3] (175 μmole/kg i.p., time 30 min), 20; in series [3] (175 μmole/kg i.p., time 120 min), 20; in series [3] (175 μmole/kg i.p., time 240 min), 20; in series [3] (584 μmole/kg i.p., time 0 min), 15; in series [3] (584 μmole/kg i.p., time 30 min), 30. Further, the “motor performance (score)” value in series [3] (584 μmole/kg i.p., time 120 min) is 30; in series [3] (584 μmole/kg i.p., time 240 min) it was 25. Moreover, the “effect on motor activity, in words” value in series [3] (100 mg/kg (584 μmole/Kg) i.p.) was “induced motor impairment and sedation”.
In the series with Wistar adult rats (NO-ASA 100 mg/Kg p.o.), `CC(=O)Oc1ccccc1C(=O)Oc1cccc(CO[N+](=O)[O-])c1` [NO-ASA, 2-acetylsalicylic acid (3-nitrooxymethyl)phenyl ester] had a response % of 82%.
In the case of `Cl.NCC1(CC(=O)Oc2cccc(CO[N+](=O)[O-])c2)CCCCC1` [NO-gabapentin, 1-(aminomethyl)cyclohexan acetic acid 3-(nitrooxymethyl)phenyl hydrochloride ester], the “response to cold stimulation” value came out at 2 in series [1] (55.7 μmole/kg i.p. single dose, time 0 min); 2 in series [1] (55.7 μmole/kg i.p. single dose, time 30 min); 2 in series [1] (55.7 μmole/kg i.p. single dose, time 120 min); 2 in series [1] (167.2 μmole/kg i.p. single dose, time 0 min); 1 in series [1] (167.2 μmole/kg i.p. single dose, time 30 min); 1 in series [1] (167.2 μmole/kg i.p. single dose, time 120 min). Besides, the “response to cold stimulation” value is listed as 2 in series [1] (278.7 μmole/kg i.p. single dose, time 0 min); 1 in series [1] (278.7 μmole/kg i.p. single dose, time 30 min); 1 in series [1] (278.7 μmole/kg i.p. single dose, time 120 min); 1 in series [1] (278.7 μmole/kg i.p. single dose, time 240 min). The figures for the “duration of significant effect on cold allodynia” value in series [1] (60 mg/kg (167.21 μmole/Kg) i.p.) and in series [1] (100 mg/kg (278.7 μmole/Kg) i.p.) were 120 min and 240 min, respectively. In addition, the “effect on cold allodynia, in words” value in series [1] (acute administration, 20, 60 or 100 mg/kg i.p.) is reported as “alleviated in a dose-dependent way cold allodynia”. Further, in the series with Wistar adult male rats (diabetic animals, 100 mg/kg per os for three days), the “death rate with respect to animals treated with gabapentin” value was “less than half”. Moreover, the “Number "paw licking" %” value in the series with Swiss male mice (50 mg/kg i.p.) is 70%. The “inhibition of "paw-licking" compared with starting drug, in words” value in the series with Swiss male mice (NO-gabapentin 50 mg/kg vs Gabapentin 90 mg/kg i.p.) is “more active than the starting drug”. The “vocalization threshold (g) to mechanical stimulation with von Frey hairs” value is listed as 100 g in series [2] (167.2 μmole/kg i.p. daily, Day 1); 200 g in series [2] (167.2 μmole/kg i.p. daily, Day 2); 400 g in series [2] (167.2 μmole/kg i.p. daily, Day 4); 90 g in series [2] (167.2 μmole/kg i.p. daily, Day 6). The “maintenance of significant effect on mechanical allodynia, in words” value in series [2] (60 mg/kg (167.2 μmole/Kg) i.p. daily) is on record as “a significant effect was maintained up to day 6”. Besides, the “effect on mechanical allodynia, in words” value in series [2] (60 mg/kg (167.2 μmole/Kg) i.p. daily for 10 day) was “alleviated mechanical allodynia following the first administration”.
As for `CN(C)CCCN1c2ccccc2CCc2ccc(Cl)cc21` [Clomipramine, clomipramine], the response % in the series with Wistar adult rats (clomipramine 10 mg/kg i.p.) worked out at 72%.

For the origin of these results see US7812039B2, “Drugs for chronic pains” (Nicox S.A., priority 2001, dated 2010).
